Test system: 885724-159-R-J1-PDC complex spheroid viability
Assay: Anticancer human tumor 885724-159-R-J1-PDC patient-derived pancreatic adenocarcinoma cell line growth inhibition [GQUAD]
Conditions: for IC50: curve of first compound; for viability, T/C: stronger effect = lower value
In short: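 Tumor cells were grown as complex spheroids with HUVEC endothelial cells and mesenchymal stem cells as stroma. G-quadruplex stabilizers were combined with targeted agents over half-log dilutions from near the clinical Cmax, or from 10 microM.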

[1] = second compound 0.0316 µM, first compound 0.0316 µM
[2] = second compound 0.0316 µM, first compound 0.1 µM
[3] = second compound 0.0316 µM, first compound 0.316 µM
[4] = second compound 0.0316 µM, first compound 1 µM
[5] = second compound 0.0316 µM, first compound 3.16 µM
[6] = second compound 0.0316 µM, first compound 10 µM
[7] = second compound 0.1 µM, first compound 0.0316 µM
[8] = second compound 0.1 µM, first compound 0.1 µM
[9] = second compound 0.1 µM, first compound 0.316 µM
[10] = second compound 0.1 µM, first compound 1 µM
[11] = second compound 0.1 µM, first compound 3.16 µM
[12] = second compound 0.1 µM, first compound 10 µM
[13] = second compound 0.316 µM, first compound 0.0316 µM
[14] = second compound 0.316 µM, first compound 0.1 µM
[15] = second compound 0.316 µM, first compound 0.316 µM
[16] = second compound 0.316 µM, first compound 1 µM
[17] = second compound 0.316 µM, first compound 3.16 µM
[18] = second compound 0.316 µM, first compound 10 µM
[19] = second compound 1 µM, first compound 0.0316 µM
[20] = second compound 1 µM, first compound 0.1 µM
[21] = second compound 1 µM, first compound 0.316 µM
[22] = second compound 1 µM, first compound 1 µM
[23] = second compound 1 µM, first compound 3.16 µM
[24] = second compound 1 µM, first compound 10 µM
[25] = second compound 3.16 µM, first compound 0.0316 µM
[26] = second compound 3.16 µM, first compound 0.1 µM
[27] = second compound 3.16 µM, first compound 0.316 µM
[28] = second compound 3.16 µM, first compound 1 µM
[29] = second compound 3.16 µM, first compound 3.16 µM
[30] = second compound 3.16 µM, first compound 10 µM
[31] = second compound 10 µM, first compound 0.0316 µM
[32] = second compound 10 µM, first compound 0.1 µM
[33] = second compound 10 µM, first compound 0.316 µM
[34] = second compound 10 µM, first compound 1 µM
[35] = second compound 10 µM, first compound 3.16 µM
[36] = second compound 10 µM, first compound 10 µM
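Note: spheroids exposed to agents for seven days before readout.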
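Throughout, for viability, T/C: percent of vehicle control viability where 100% = DMSO wells.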

`C=CCn1c(=O)c2cnc(Nc3ccc(N4CCN(C)CC4)cc3)nc2n1-c1cccc(C(C)(C)O)n1` + CN(C)c1ccc(Nc2c3ccc(NC(=O)CCN4CCCC4)cc3nc3cc(NC(=O)CCN4CCCC4)ccc23)cc1 was tested, and the IC50 (second compound 0.0316 µM) was > 10000 nM, the IC50 (second compound 0.1 µM) was > 10000 nM and the IC50 (second compound 0.316 µM) was > 10000 nM. It also gave an IC50 (second compound 1 µM) of 3830 nM, an IC50 (second compound 3.16 µM) of 714 nM and an IC50 (second compound 10 µM) of 1340 nM. It also gave a viability, T/C [1] of 99%, a viability, T/C [2] of 86.2% and a viability, T/C [3] of 74.4%. It also gave a viability, T/C [4] of 81.6%, a viability, T/C [5] of 72.4% and a viability, T/C [6] of 73%. It also gave a viability, T/C [7] of 95.4%, a viability, T/C [8] of 83.6% and a viability, T/C [9] of 79.3%. The viability, T/C [10] was 73.7%, the viability, T/C [11] was 71.3% and the viability, T/C [12] was 72.5%. The viability, T/C [13] was 92%, the viability, T/C [14] was 81.8% and the viability, T/C [15] was 69.5%. For the same compound, the viability, T/C [16] was 63.4%, the viability, T/C [17] was 57.7% and the viability, T/C [18] was 52.3%. It also gave a viability, T/C [19] of 83.5%, a viability, T/C [20] of 66.7% and a viability, T/C [21] of 60.4%. For the same compound, the viability, T/C [22] was 44.1%, the viability, T/C [23] was 57.2% and the viability, T/C [24] was 47.3%. It also gave a viability, T/C [25] of 82.6%, a viability, T/C [26] of 60.7% and a viability, T/C [27] of 61.2%. The viability, T/C [28] was 40.7%, the viability, T/C [29] was 52.1% and the viability, T/C [30] was 38.7%. It also gave a viability, T/C [31] of 68.3%, a viability, T/C [32] of 69.5% and a viability, T/C [33] of 56.7%. For the same compound, the viability, T/C [34] was 50.4%, the viability, T/C [35] was 45.7% and the viability, T/C [36] was 19.6%.
Compound `Cc1[nH]c2ccccc2c1CCNCc1ccc(/C=C/C(=O)NO)cc1` + Cc1cnc(CNC(=O)c2c(=O)c3ccc(N4CCCN(C)CC4)nc3n3c2sc2ccccc23)cn1 has an IC50 (second compound 0.0316 µM) of 291 nM, an IC50 (second compound 0.1 µM) of 241 nM and an IC50 (second compound 0.316 µM) of 193 nM. The IC50 (second compound 1 µM) was 137 nM, the IC50 (second compound 3.16 µM) was 93.5 nM and the IC50 (second compound 10 µM) was 23.8 nM. For the same compound, the viability, T/C (second compound 0.0316 µM, first compound 0.000999 µM) was 111%, the viability, T/C (second compound 0.0316 µM, first compound 0.00316 µM) was 103% and the viability, T/C (second compound 0.0316 µM, first compound 0.00999 µM) was 89.7%. For the same compound, the viability, T/C [1] was 95.4%, the viability, T/C (second compound 0.0316 µM, first compound 0.0999 µM) was 97.5% and the viability, T/C [3] was 46.4%. For the same compound, the viability, T/C (second compound 0.1 µM, first compound 0.000999 µM) was 100%, the viability, T/C (second compound 0.1 µM, first compound 0.00316 µM) was 114% and the viability, T/C (second compound 0.1 µM, first compound 0.00999 µM) was 117%. It also gave a viability, T/C [7] of 98.8%, a viability, T/C (second compound 0.1 µM, first compound 0.0999 µM) of 67.2% and a viability, T/C [9] of 44.7%. The viability, T/C (second compound 0.316 µM, first compound 0.000999 µM) was 107%, the viability, T/C (second compound 0.316 µM, first compound 0.00316 µM) was 103% and the viability, T/C (second compound 0.316 µM, first compound 0.00999 µM) was 102%. It also gave a viability, T/C [13] of 83.1%, a viability, T/C (second compound 0.316 µM, first compound 0.0999 µM) of 72.8% and a viability, T/C [15] of 34.5%. For the same compound, the viability, T/C (second compound 1 µM, first compound 0.000999 µM) was 90%, the viability, T/C (second compound 1 µM, first compound 0.00316 µM) was 78.6% and the viability, T/C (second compound 1 µM, first compound 0.00999 µM) was 75.8%. It also gave a viability, T/C [19] of 71.5%, a viability, T/C (second compound 1 µM, first compound 0.0999 µM) of 53.5% and a viability, T/C [21] of 37%. It also gave a viability, T/C (second compound 3.16 µM, first compound 0.000999 µM) of 79.3%, a viability, T/C (second compound 3.16 µM, first compound 0.00316 µM) of 72.5% and a viability, T/C (second compound 3.16 µM, first compound 0.00999 µM) of 68%. The viability, T/C [25] was 63.6%, the viability, T/C (second compound 3.16 µM, first compound 0.0999 µM) was 49.3% and the viability, T/C [27] was 30.6%. It also gave a viability, T/C (second compound 10 µM, first compound 0.000999 µM) of 69.1%, a viability, T/C (second compound 10 µM, first compound 0.00316 µM) of 73.7% and a viability, T/C (second compound 10 µM, first compound 0.00999 µM) of 56.9%. The viability, T/C [31] was 46.1%, the viability, T/C (second compound 10 µM, first compound 0.0999 µM) was 35.4% and the viability, T/C [33] was 23.8%.
Work on `C#Cc1c(F)ccc2cc(O)cc(-c3ncc4c(N5CC6CCC(C5)N6)nc(OCC56CCCN5CC(F)C6)nc4c3F)c12` (stereo unspecified) + Cc1[nH]c2ccc(F)cc2c1-c1nc2c3cccnc3c3ncccc3c2[nH]1 yielded an IC50 (second compound 0.0316 µM) of 4050 nM, an IC50 (second compound 0.1 µM) of 3750 nM and an IC50 (second compound 0.316 µM) of 4070 nM. For the same compound, the IC50 (second compound 1 µM) was 3550 nM, the IC50 (second compound 3.16 µM) was < 31.6 nM and the IC50 (second compound 10 µM) was 4500 nM. It also gave a viability, T/C [1] of 97%, a viability, T/C [2] of 89.2% and a viability, T/C [3] of 90.3%. For the same compound, the viability, T/C [4] was 76.1%, the viability, T/C [5] was 57.5% and the viability, T/C [6] was 23.4%. It also gave a viability, T/C [7] of 101%, a viability, T/C [8] of 97.8% and a viability, T/C [9] of 102%. The viability, T/C [10] was 87.4%, the viability, T/C [11] was 54.6% and the viability, T/C [12] was 24.9%. It also gave a viability, T/C [13] of 94.5%, a viability, T/C [14] of 80.4% and a viability, T/C [15] of 85.4%. For the same compound, the viability, T/C [16] was 62.9%, the viability, T/C [17] was 63.1% and the viability, T/C [18] was 28%. For the same compound, the viability, T/C [19] was 72.5%, the viability, T/C [20] was 69.2% and the viability, T/C [21] was 75%. It also gave a viability, T/C [22] of 59.4%, a viability, T/C [23] of 54.2% and a viability, T/C [24] of 29.5%. It also gave a viability, T/C [25] of 18.4%, a viability, T/C [26] of 8.81% and a viability, T/C [27] of 12.7%. For the same compound, the viability, T/C [28] was 11.5%, the viability, T/C [29] was 9.79% and the viability, T/C [30] was 6.07%. It also gave a viability, T/C [31] of 63.1%, a viability, T/C [32] of 75.8% and a viability, T/C [33] of 66%. For the same compound, the viability, T/C [34] was 61.2%, the viability, T/C [35] was 63.2% and the viability, T/C [36] was 21.7%.
